What was measured:
Experiment in all cases: Bliss excess, mean over the matrix (fraction); higher = more synergy
[1] = tested on: C3A (Hepatocellular Carcinoma)
Summary of the method: (§1)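 Bliss excess equals the observed combination effect minus the expected value EA + EB − EA·EB, where EA and EB are the effects of each agent alone. Combination Emax is the second-highest inhibition within the matrix. Inhibition was scaled from CellTiter-Glo 2.0 luminescence, with 0 set by vehicle wells and 1 by blank wells, after 72 hours of two-drug dosing of cells plated in 1536-well plates.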

IGR-1 (Melanoma) = tested on: IGR-1 (Melanoma)
Summary of the method: as §1

[2] = tested on: JiyoyeP-2003 (Burkitt's Lymphoma)
Summary of the method: as §1

[3] = tested on: NCI-H1694 (Small Cell Lung Carcinoma)
Summary of the method: as §1

[4] = tested on: NCI-H1781 (Lung Adenocarcinoma)
Summary of the method: as §1

[5] = tested on: NCI-H1793 (Lung Adenocarcinoma)
Summary of the method: as §1

NCI-H2369 (Mesothelioma) = tested on: NCI-H2369 (Mesothelioma)
Summary of the method: as §1

[6] = tested on: SW756 (Cervical Carcinoma)
Summary of the method: as §1

[7] = tested on: TGBC24TKB (Biliary Tract Carcinoma)
Summary of the method: as §1

[8] = tested on: COR-L95 (Small Cell Lung Carcinoma)
Summary of the method: as §1

[9] = tested on: KARPAS-1106P (B-Cell Non-Hodgkin's Lymphoma)
Summary of the method: as §1

[10] = tested on: KARPAS-620 (Plasma Cell Myeloma)
Summary of the method: as §1

[11] = tested on: KATOIII (Gastric Carcinoma)
Summary of the method: as §1

[12] = tested on: LS-513 (Colorectal Carcinoma)
Summary of the method: as §1

[13] = tested on: MFH-ino (Other Solid Carcinomas)
Summary of the method: as §1

[14] = tested on: NCI-H1299 (Non-Small Cell Lung Carcinoma)
Summary of the method: as §1

NCI-H2595 (Mesothelioma) = tested on: NCI-H2595 (Mesothelioma)
Summary of the method: as §1

[15] = tested on: OCI-AML2 (Acute Myeloid Leukemia)
Summary of the method: as §1

[16] = tested on: SW1783 (Low Grade Glioma)
Summary of the method: as §1

[17] = tested on: SW1990 (Pancreatic Carcinoma)
Summary of the method: as §1

C[C@@H](c1ccc2nccn2c1)n1nnc2ncc(-c3cnn(C)c3)nc21 [Savolitinib] + CN(CC[C@H](CSC1=CC=CC=C1)NC2=C(C=C(C=C2)S(=O)(=O)NC(=O)C3=CC=C(C=C3)N4CCC(CC4)[C@H](C5=CC=CC=C5C6=CC=C(C=C6)Cl)O)S(=O)(=O)C(F)(F)F)CCO [AZD4320] (first compound max 1 µM, 7x7, partner max 1 µM)
Bliss excess [1]: -0.0604
Bliss excess (IGR-1 (Melanoma)): -0.0913
Bliss excess [2]: -0.0082
Bliss excess [3]: -0.042
Bliss excess [4]: -0.053
Bliss excess [5]: -0.0329
Bliss excess (NCI-H2369 (Mesothelioma)): -0.0522
Bliss excess [6]: -0.0319
Bliss excess [7]: 0.0233

CCc1c2c(nc3ccc(O)cc13)-c1cc3c(c(=O)n1C2)COC(=O)[C@]3(O)CC [SN-38] + O=C(c1cc(Cc2n[nH]c(=O)c3ccccc23)ccc1F)N1CCN(C(=O)C2CC2)CC1 [Olaparib] (first compound max 0.3 µM, 7x7, partner max 10 µM)
Bliss excess [1]: 0.0041
Bliss excess [8]: 0.0044
Bliss excess (IGR-1 (Melanoma)): 0.0115
Bliss excess [2]: 0.104
Bliss excess [9]: -0.0008
Bliss excess [10]: -0.0221
Bliss excess [11]: -0.0478
Bliss excess [12]: 0.0731
Bliss excess [13]: 0.0254
Bliss excess [14]: 0.129
Bliss excess [4]: 0.0788
Bliss excess (NCI-H2369 (Mesothelioma)): 0.0128
Bliss excess (NCI-H2595 (Mesothelioma)): 0.0184
Bliss excess [15]: 0.0787
Bliss excess [16]: 0.061
Bliss excess [17]: 0.0001
Bliss excess [6]: -0.0109
Bliss excess [7]: 0.0421

CN(C)CCCOc1ccc(-c2ccc3ncc4c(c3c2)n(C2CCOCC2)c(=O)n4C)cn1 [AZD0156] + O=C(c1cc(Cc2n[nH]c(=O)c3ccccc23)ccc1F)N1CCN(C(=O)C2CC2)CC1 [Olaparib] (first compound max 3 µM, partner max 3 µM)
Bliss excess [1]: -0.0171
Bliss excess [8]: -0.11
Bliss excess (IGR-1 (Melanoma)): -0.0006
Bliss excess [2]: 0.007
Bliss excess [9]: 0.0471
Bliss excess [10]: 0.0798
Bliss excess [11]: -0.0125
Bliss excess [12]: 0.0071
Bliss excess [13]: -0.061
Bliss excess [14]: 0.0495
Bliss excess [4]: 0.0077
Bliss excess [5]: 0.0074
Bliss excess (NCI-H2369 (Mesothelioma)): -0.0455
Bliss excess (NCI-H2595 (Mesothelioma)): -0.0288
Bliss excess [15]: 0.171
Bliss excess [16]: 0.007
Bliss excess [17]: -0.0285
Bliss excess [6]: -0.0192
Bliss excess [7]: 0.0104

C=CCn1c(=O)c2cnc(Nc3ccc(N4CCN(C)CC4)cc3)nc2n1-c1cccc(C(C)(C)O)n1 [AZD1775] + C1CN(CCC1(C(=O)N[C@@H](CCO)C2=CC=C(C=C2)Cl)N)C3=NC=NC4=C3C=CN4 [Capivasertib] (first compound max 3 µM, partner max 3 µM)
Bliss excess [1]: -0.0262
Bliss excess [8]: 0.0297
Bliss excess (IGR-1 (Melanoma)): 0.011
Bliss excess [2]: -0.0726
Bliss excess [9]: 0.0135
Bliss excess [11]: -0.0773
Bliss excess [12]: -0.0514
Bliss excess [13]: -0.0204
Bliss excess [14]: -0.0756
Bliss excess [4]: -0.096
Bliss excess [5]: 0.0373
Bliss excess (NCI-H2369 (Mesothelioma)): 0.0035
Bliss excess (NCI-H2595 (Mesothelioma)): -0.0787
Bliss excess [15]: -0.0405
Bliss excess [16]: -0.0787
Bliss excess [17]: -0.0209
Bliss excess [6]: -0.0075
Bliss excess [7]: -0.034

Cc1c2c(nn1C)CSCc1cc(n(C)n1)CSc1cc(c3ccccc3c1)OCCCc1c(C(=O)O)n(C)c3c-2c(Cl)ccc13 [AZD5991] + C=CCn1c(=O)c2cnc(Nc3ccc(N4CCN(C)CC4)cc3)nc2n1-c1cccc(C(C)(C)O)n1 [AZD1775] (first compound max 1 µM, partner max 1 µM)
Bliss excess [1]: 0.0084
Bliss excess [8]: -0.0637
Bliss excess (IGR-1 (Melanoma)): 0.061
Bliss excess [2]: -0.0253
Bliss excess [9]: -0.011
Bliss excess [10]: -0.0032
Bliss excess [11]: -0.029
Bliss excess [12]: -0.0115
Bliss excess [13]: 0.0604
Bliss excess [14]: -0.0048
Bliss excess [3]: -0.0247
Bliss excess [4]: -0.054
Bliss excess [5]: -0.0329
Bliss excess (NCI-H2369 (Mesothelioma)): 0.0049
Bliss excess (NCI-H2595 (Mesothelioma)): -0.0127
Bliss excess [15]: -0.0366
Bliss excess [17]: -0.024
Bliss excess [6]: -0.013
Bliss excess [7]: -0.0375

COc1nnc2ccc(N3CCC(c4ccc(OCCN5CCN(C)C(=O)[C@H]5C)cc4)CC3)nn12 [AZD5153] + CN(CC[C@H](CSC1=CC=CC=C1)NC2=C(C=C(C=C2)S(=O)(=O)NC(=O)C3=CC=C(C=C3)N4CCC(CC4)[C@H](C5=CC=CC=C5C6=CC=C(C=C6)Cl)O)S(=O)(=O)C(F)(F)F)CCO [AZD4320] (first compound max 1 µM, 7x7, partner max 1 µM)
Bliss excess [1]: 0.0705
Bliss excess (IGR-1 (Melanoma)): 0.197
Bliss excess [2]: -0.0036
Bliss excess [3]: 0.0607
Bliss excess [4]: -0.0212
Bliss excess [5]: 0.039
Bliss excess (NCI-H2369 (Mesothelioma)): -0.0032
Bliss excess [6]: 0.0196
Bliss excess [7]: 0.0326

CN(CCO)CC[C@H](CSc1ccccc1)Nc1ccc(S(=O)(=O)NC(=O)c2ccc(N3CCC([C@@H](O)c4ccccc4-c4ccc(Cl)cc4)CC3)cc2)cc1S(=O)(=O)C(F)(F)F [AZD4320] + Cn1cnc2c(F)c(Nc3ccc(Br)cc3Cl)c(C(=O)NOCCO)cc21 [Selumetinib] (first compound max 1 µM, 7x7, partner max 3 µM)
Bliss excess [1]: 0.141
Bliss excess [8]: -0.0067
Bliss excess (IGR-1 (Melanoma)): 0.143
Bliss excess [2]: 0.0288
Bliss excess [9]: -0.0007
Bliss excess [10]: 0.0613
Bliss excess [11]: -0.0086
Bliss excess [13]: -0.03
Bliss excess [14]: 0.0505
Bliss excess [3]: 0.0042
Bliss excess [4]: 0.0131
Bliss excess [5]: 0.0496
Bliss excess (NCI-H2369 (Mesothelioma)): 0.0216
Bliss excess (NCI-H2595 (Mesothelioma)): 0.04
Bliss excess [15]: 0.0207
Bliss excess [16]: -0.0419
Bliss excess [17]: 0.0357
Bliss excess [6]: 0.0022
Bliss excess [7]: 0.0369

COc1cc2ncnc(Nc3ccc(F)c(Cl)c3)c2cc1OCCCN1CCOCC1 [Gefitinib] + CC(C)n1c(=O)n(C)c2cnc3cc(F)c(-c4ccc(OCCCN5CCCCC5)nc4)cc3c21 [AZD1390] (first compound max 10 µM, 7x7, partner max 0.3 µM)
Bliss excess [1]: -0.11
Bliss excess [8]: -0.0119
Bliss excess (IGR-1 (Melanoma)): -0.006
Bliss excess [2]: -0.0386
Bliss excess [9]: -0.0393
Bliss excess [10]: -0.0538
Bliss excess [11]: -0.0113
Bliss excess [12]: -0.0362
Bliss excess [13]: -0.0761
Bliss excess [14]: -0.0561
Bliss excess [4]: -0.0801
Bliss excess [5]: -0.0406
Bliss excess (NCI-H2369 (Mesothelioma)): -0.0614
Bliss excess (NCI-H2595 (Mesothelioma)): -0.0596
Bliss excess [15]: -0.041
Bliss excess [16]: -0.0571
Bliss excess [17]: -0.0441
Bliss excess [6]: -0.0551
Bliss excess [7]: -0.0379

Reference: the supplement of paper PMC11061612
